Reference: patent publication US7927612B2, “Combinations and methods for treating neoplasms” (priority 2000, dated 2011)
Where “and” joins values, the source holds several entries; their conditions need not be identical. Equal entries are not always repeated.

Experiments:
liver cancer cells = assay: Treatment efficacy study in mice with implanted liver cancer cells: tumor volume (Example 9, Tables 14-16); type: in vivo, Kuiking mice; parameters: Everage TV1 (average tumor volume): unit not given here; conditions: control group
Protocol: Kuiking mice were used in this study. The average weight of the mice used in this study is about 23 grams. About 10^3 liver cancer cells were implanted into the left army pit of mice. […] The mice were divided into three groups: control group, therapy group and immunotherapy group. In the control group, 0.1 ml of Ara-C in normal saline was injected to the tumor via intro-tumor injection. […]

[1] = Body weight of tumor-bearing mice in the treatment efficacy study (Example 9, Tables 14-16); type: in vivo, Kuiking mice; parameters: unit: g; conditions: control group
Protocol: Kuiking mice were used in this study. The average weight of the mice used in this study is about 23 grams. About 10^3 liver cancer cells were implanted into the left army pit of mice. At about 10 days, the small tumor grew under the mice skin. At about 15 days, the tumor grew to about 1 cm size. The mice were divided into three groups: control group, therapy group and immunotherapy group. In the control group, 0.1 ml of Ara-C in normal saline was injected to the tumor via intro-tumor injection.
In the immunotherapy group, 0.1 ml of the combination of ethanol, H2O2, anticancer drug AraC, hemotoxilin and TNP in normal saline was injected to the tumor via intro-tumor injection.

[2] = Date (start), individual mice No. 1-10

Cytidine Arabinosyladenine [Ara-C]
Everage TV1 (average tumor volume) (liver cancer cells; 1 d): 0.8
TV (tumor volume) (liver cancer cells; 1 d, individual mice): 1.3*0.7*0.5 = 0.455 Scm and 1.1*0.8*0.6 = 0.528 Scm and 1.4*1.1*1 = 1.54 Scm and 1*0.9*0.6 = 0.54 Scm and 1.1*1*0.7 = 0.77 Scm and 1.3*0.9*0.8 = 0.94 Scm and 1*0.7*0.7 = 0.49 Scm and 1.1*0.7*0.6 = 0.462 Scm
Everage TV1 (average tumor volume) (liver cancer cells; 2 d): 1.33
TV (tumor volume) (liver cancer cells; 2 d, individual mice): 1.2*1.1*0.8 = 1.1 Scm and 1.2*0.9*0.5 = 0.54 Scm and 1.4*1.2*0.8 = 1.34 Scm and 1*0.8*0.6 = 0.48 Scm and 1.3*0.6*0.5 = 0.39 Scm and 1.3*1*0.8 = 1.04 Scm and 1.3*0.8*0.7 = 0.73 Scm and 1.2*1.1*0.8 = 1.06 Scm and 1.2*1*0.8 = 0.96 Scm and 1.3*0.9*0.6 = 0.702 Scm
Everage TV1 (average tumor volume) (liver cancer cells; 3 d): 1.47
TV (tumor volume) (liver cancer cells; 3 d, individual mice): 1.1*1.2*0.7 = 0.924 Scm and 1.5*1.2*1 = 1.8 Scm (2×) and 1.2*0.9*0.6 = 0.648 Scm and 1.2*1.1*0.8 = 1.1 Scm and 1.2*1*0.6 = 0.72 Scm and 1.4*1.1*0.7 = 1.08 Scm and 1.4*1.2*0.8 = 1.34 Scm and 1*1*0.6 = 0.6 Scm
Everage TV1 (average tumor volume) (liver cancer cells; 4 d): 1.47
TV (tumor volume) (liver cancer cells; 4 d, individual mice): 1.3*1.4*1.1 = 2 Scm and 1.5*1*0.6 = 0.99 Scm and 1.6*1.4*1 = 2.24 Scm and 1.2*0.8*0.5 = 1 Scm and 1.6*1.3*1.4 = 2.9 Scm and 1.4*0.8*0.6 = 0.67 Scm and 1.5*1.2*1.1 = 1.98 Scm and 1.2*1.1*0.8 = 1.06 Scm and 1.3*1.1*0.8 = 1.14 Scm and 1*1*0.7 = 0.7 Scm
Everage TV1 (average tumor volume) (liver cancer cells; 5 d): 1.65
TV (tumor volume) (liver cancer cells; 5 d, individual mice): 1.4*1*1 = 1.4 Scm and 1.5*1.3*1 = 1.95 Scm and 1.5*1.1*0.7 = 1.16 Scm and 1.7*1.3*0.9 = 1.98 Scm and 1.2*1.2*0.7 = 1 Scm and 1.5*1.3*0.9 = 1.75 Scm and 1.7*1.4*1 = 2.38 Scm and 1.4*1.4*1 = 1.96 Scm and 1.6*1*0.8 = 1.28 Scm
Everage TV1 (average tumor volume) (liver cancer cells; 6 d): 1.87
TV (tumor volume) (liver cancer cells; 6 d, individual mice): 1.3*1.1*0.8 = 1.14 Scm and 1.6*1.3*1.1 = 2.28 Scm and 1.2*1*0.5 = 0.6 Scm and 1.8*1.2*1 = 2.16 Scm and 1.3*1.5*0.6 = 1.17 Scm and 1.6*1.4*1 = 2.24 Scm and 1.9*1.6*1.2 = 3.6 Scm and 1.5*1.4*1.1 = 2.31 Scm and 1.4*1.2*0.8 = 1.34 Scm
Everage TV1 (average tumor volume) (liver cancer cells; 7 d): 2.59
TV (tumor volume) (liver cancer cells; 7 d, individual mice): 1.5*0.8*0.7 = 0.84 Scm and 1.8*1.6*1.5 = 4.32 Scm and 1.4*0.9*0.6 = 0.76 Scm and 1.9*1.4*1.2 = 3.19 Scm and 1.5*1.3*0.9 = 1.76 Scm and 1.9*1.5*1 = 2.85 Scm and 1.8*1.5*1.5 = 4 Scm and 1.5*1.4*1.3 = 2.73 Scm and 1.5*1.6*1.2 = 2.88 Scm
Everage TV1 (average tumor volume) (liver cancer cells; 8 d): 2.73
TV (tumor volume) (liver cancer cells; 8 d, individual mice): 1.3*0.9*0.7 = 0.819 Scm and 1.4*1.5*1.3 = 2.73 Scm and 1.8*1.2*1.2 = 2.59 Scm and 1.2*0.7*0.6 = 0.5 Scm and 1.5*1.5*1.2 = 2.7 Scm and 1.5*1.6*1.4 = 3.36 Scm and 1.5*1.3*1.2 = 2.34 Scm and 1.5*1.4*1.2 = 2.52 Scm and 1.5*1.2*1.1 = 1.98 Scm
Everage TV1 (average tumor volume) (liver cancer cells; 9 d): 3.12
TV (tumor volume) (liver cancer cells; 9 d, individual mice): 1.5*1.2*0.9 = 1.62 Scm and 1.8*1.8*1.8 = 5.8 Scm and 1.9*1.5*1.4 = 3.99 Scm and 1.6*1.1*0.7 = 1.2 Scm and 2.1*1.5*1.4 = 4.4 Scm and 1.3*1.4*1.1 = 2 Scm and 1.7*1.4*1.1 = 2.62 Scm and 1.4*1.6*1.4 = 3.14 Scm and 1.8*1.4*1.3 = 3.28 Scm
Everage TV1 (average tumor volume) (liver cancer cells; Date (start)): 0.343
TV (tumor volume) (liver cancer cells; [2]): 0.8*0.6*0.4 = 0.192 Scm and 1*0.5*0.3 = 0.15 Scm and 1.3*0.9*0.6 = 0.7 Scm and 1*0.7*0.5 = 0.35 Scm and 0.9*0.7*0.5 = 0.32 Scm and 0.8*0.6*0.5 = 0.24 Scm and 1*0.9*0.6 = 0.54 Scm and 1*0.8*0.5 = 0.4 Scm and 0.7*0.7*0.6 = 0.294 Scm and 0.7*0.7*0.5 = 0.245 Scm
Weight ([1]; 1 d, individual mice): 25 (3×) and 20 and 21 and 17 and 25.5 and 18 and 23.5 and 27
Weight ([1]; 2 d, individual mice): 24 (2×) and 19 (2×) and 16.5 and 17 and 23.8 and 17.5 and 21 and 25
Weight ([1]; 3 d, individual mice): 22 (4×) and 17.5 and 17 and 15 and 16.5 and 20 and 23.5
Weight ([1]; 4 d, individual mice): 26.5 and 24 (2×) and 28.2 and 22.8 and 15.8 and 16.5 and 26 and 20 and 28.5
Weight ([1]; 5 d, individual mice): 24.5 and 30 and 28.5 and 24 (2×) and 28 and 19 and 26.5 and 21.5
Weight ([1]; 6 d, individual mice): 23.5 and 31 and 29.5 and 24.5 and 28 (2×) and 24 and 19 and 22
Weight ([1]; 7 d, individual mice): 24 (2×) and 32.5 and 29 and 24.5 and 28.5 and 19.5 and 28 and 21
Weight ([1]; 8 d, individual mice): 24.5 (3×) and 33 and 24 and 28.5 (2×) and 20 and 21
Weight ([1]; 9 d, individual mice): 24.5 (2×) and 33.5 and 23.5 and 28.5 (2×) and 21 and 29 and 23
Weight [1, 2]: 23.5 and 24 and 22.5 and 18 and 18.5 and 14 and 23 and 14.5 and 20 and 26
